# Read-outs that look alike come from different tables or passages of the source.
# Key:
# [1] = system: ischemic cerebral edemas of rats caused by occlusion of the middle cerebral artery; assay: Action upon ischemic cerebral edemas of rats caused by occlusion of the middle cerebral artery; type: in vivo, Wistar rats; settings: Rattus norvegicus, ip, 24 h, read-out: Cerebral Edema Inhibition Rate; for inhibition in vivo at 30 mg/kg: dose 30 mg/Kg i.p.; for inhibition in vivo at 25 mg/kg: dose 25 mg/Kg i.p.
# Protocol: (Action upon ischemic cerebral edemas of rats caused by occlusion of the middle cerebral artery)
# The compound being tested was suspended in 0.5% aqueous solution of CMC, and this suspension was intraperitoneally injected to each rat immediately after occlusion, and 8 hours and 16 hours later (a total of three times). Twenty-four hours after occlusion, each of the treated rats was sacrificed, the brain was excised, and the water content of hemispheres were determined by weighing the hemispheres before and after drying at 110° C. to the constant weight. On the other hand, the rats of the control group were subjected to arterial occlusion in the same way as above, followed by intraperitoneal injection of physiological saline three times a day. The cerebral edema inhibition rate of each compound was calculated from the following equation: [formula] where CL and CR represent the water contents of left and right hemispheres of the control group and SL and SR the water contents of left and right hemispheres of the treated group.
# [2] = Acute toxicity (LD50) by intraperitoneal injection to mice; settings: mouse, in vivo, ip, mortality 48 hours after injection
# Protocol: Acute toxicity (LD50) was determined by intraperitoneal injection of a compound being tested to mice and by calculation from the mortality 48 hours after injection by the usual method.
# [3] = system: cerebral infarction of rats caused by occlusion of the middle cerebral artery; assay: Action against cerebral infarction of rats caused by occlusion of the middle cerebral artery (TTC stain, planimeter); type: in vivo; settings: i.p. three times, 24 h after occlusion
# Protocol: (Action against cerebral infarction of rats caused by occlusion of the middle cerebral artery)
# Cerebral infarction of rats caused by occlusion of the middle cerebral artery was measured by the method of Tamura et al. (Japan Clinics, 43, 185, 1985). The middle cerebral artery of rats was artificially occluded, the compound being tested was suspended in 0.5% aqueous solution of CMC, and this suspension was intraperitoneally injected to each rat immediately after occlusion, and 8 hours and 16 hours later (a total of three times). Twenty-four hours after occlusion, each of the treated rats was sacrificed, and the brain was excised, stained with TTC and cut into equal six parts from top to bottom. The cross-sections were photographed, and the ratio of infarcted areas to the whole brain was measured by means of a planimeter.
# [4] = cited from earlier work; for protection of the brain from cerebral ischemia: literature
# [5] = three times (immediately, 8 and 16 h after occlusion)
# [6] = control group 11.58 ± 0.81, **1% significant difference
# [7] = control group 11.58 ± 0.81, *5% significant difference
# [8] = dose 50 mg/Kg i.p., three times (immediately, 8 and 16 h after occlusion)
Compound,LD50 at 48 h [2] [mg/kg],"inhibition in vivo at 30 mg/kg [1, 5] [%]","inhibition in vivo at 25 mg/kg [1, 5] [%]",other results
O=C([O-])N1N=CCC1c1ccccc1.[Na+] (stereo not drawn),710,–,–,inhibition in vivo at 50 mg/kg [1]: 18.6%
"O=C(c1cccnc1)N1N=CCC1c1ccccc1 (stereo not drawn) [Compound 1, 1-(3-Pyridylcarbonyl)-5-phenyl-2-pyrazoline]",600,36,–,"Rate of Infarcted Area [3, 6]: 5.03 ± 0.49%"
"O=C(c1ccncc1)N1N=CCC1c1ccccc1 (stereo not drawn) [Compound 2, 1-(4-Pyridylcarbonyl)-5-phenyl-2-pyrazoline]",630,30.5,–,–
"O=C(c1ccccn1)N1N=CCC1c1ccccc1 (stereo not drawn) [Compound 3, 1-(2-Pyridylcarbonyl)-5-phenyl-2-pyrazoline]",560,15.7,–,–
"COc1ccccc1C1CC=NN1C(=O)c1cccnc1 (stereo not drawn) [Compound 4, 1-(3-Pyridylcarbonyl)-5-(2-methoxyphenyl)-2-pyrazoline]",610,28.3,–,–
"COc1cccc(C2CC=NN2C(=O)c2cccnc2)c1 (stereo not drawn) [Compound 5, 1-(3-Pyridylcarbonyl)-5-(3-methoxyphenyl)-2-pyrazoline]",630,20.7,–,–
"COc1ccc(C2CC=NN2C(=O)c2cccnc2)cc1 (stereo not drawn) [Compound 6, 1-(3-Pyridylcarbonyl)-5-(4-methoxyphenyl)-2-pyrazoline]",830,19.3,–,–
"O=C(c1cccnc1)N1N=CCC1c1ccco1 (stereo not drawn) [Compound 7, 1-(3-Pyridylcarbonyl)-5-(2-furyl)-2-pyrazoline]",1100,31.2,–,"Rate of Infarcted Area [3, 7]: 6.96 ± 0.79%"
"O=C(c1cnccn1)N1N=CCC1c1ccccc1 (stereo not drawn) [Compound 8, 1-Pyrazylcarbonyl-5-phenyl-2-pyrazoline]",710,–,33,–
"O=C(c1cccnc1)N1N=CCC1c1ccccc1F (stereo not drawn) [Compound 9, 1-(3-Pyridylcarbonyl)-5-(2-fluorophenyl)-2-pyrazoline]",830,–,29.1,–
"Cc1ccccc1C1CC=NN1C(=O)c1cccnc1 (stereo not drawn) [Compound 10, 1-(3-Pyridylcarbonyl)-5-(2-methylphenyl)-2-pyrazoline]",610,–,31.3,–
"O=C(c1cccnc1)N1N=CCC1c1ccc(Cl)cc1 (stereo not drawn) [Compound 11, 1-(3-Pyridylcarbonyl)-5-(4-chlorophenyl)-2-pyrazoline]",710,–,29.3,–
"CC1CC=NN1C(=O)c1cccnc1 (stereo not drawn) [Compound 17, 1-(3-Pyridylcarbonyl)-5-methyl-2-pyrazoline]",850,–,34,"Rate of Infarcted Area [3, 7]: 8.01 ± 0.54%"
"CC(C)C1CC=NN1C(=O)c1cccnc1 (stereo not drawn) [Compound 22, 1-(3-Pyridylcarbonyl)-5-isopropyl-2-pyrazoline]",830,–,–,"inhibition in vivo at 50 mg/kg [1, 8]: 27.2%"
"CCOC(=O)N1N=CCC1c1ccccc1 (stereo not drawn) [Compound 25, 1-Ethoxycarbonyl-5-phenyl-2-pyrazoline]",830,–,–,"inhibition in vivo at 50 mg/kg [1, 8]: 27.2%"
"CCOC(=O)N1N=CCC1C (stereo not drawn) [Compound 28, 1-Ethoxycarbonyl-5-methyl-2-pyrazoline]",–,–,–,"Rate of Infarcted Area [3, 6]: 5.79 ± 0.43%"
"CCC1CC=NN1C(=O)OC (stereo not drawn) [Compound 30, 1-Methoxycarbonyl-5-ethyl-2-pyrazoline]",740,–,29.1,–
"C1=NNC(c2ccccc2)C1 (stereo not drawn) [Compound 31, 5-Phenyl-2-pyrazoline]",540,–,32,"Rate of Infarcted Area [3, 7]: 7.93 ± 0.56%"
"Clc1ccccc1C1CC=NN1 (stereo not drawn) [Compound 34, 5-(2-Chlorophenyl)-2-pyrazoline]",600,–,29.1,"Rate of Infarcted Area [3, 7]: 8.56 ± 0.71%"

Compound,LD50 at 48 h [2] [mg/kg],"inhibition in vivo at 30 mg/kg [1, 5] [%]","inhibition in vivo at 25 mg/kg [1, 5] [%]",other results
"Cc1ccccc1C1CC=NN1 (stereo not drawn) [Compound 37, 5-(2-Methylphenyl)-2-pyrazoline]",680,–,30.4,–
"COc1ccccc1C1CC=NN1 (stereo not drawn) [Compound 40, 5-(2-Methoxylphenyl)-2-pyrazoline]",560,–,25.7,–
"Fc1cccc(C2CC=NN2)c1 (stereo not drawn) [Compound 42, 5-(3-Fluorophenyl)-2-pyrazoline]",710,–,23.9,–
"FC(F)(F)c1cccc(C2CC=NN2)c1 (stereo not drawn) [Compound 45, 5-(3-Trifluoromethylphenyl)-2-pyrazoline]",630,–,30.4,–
"C1=NNC(c2ccncc2)C1 (stereo not drawn) [Compound 52, 5-(4-Pyridyl)-2-pyrazoline]",540,–,21.8,–
"C1=NNC(c2cccnc2)C1 (stereo not drawn) [Compound 53, 5-(3-Pyridyl)-2-pyrazoline]",600,–,16.7,–
"CC(=O)N1N=CCC1c1ccccc1 (stereo not drawn) [Compound 56, -Acetyl-5-phenyl-2-pyrazoline]",1100,–,15.9,–
"O=C(c1ccccc1)N1N=CCC1c1ccccc1 (stereo not drawn) [Compound 59, 1-Benzoyl-5-phenyl-2-pyrazoline]",600,21.7,–,"Rate of Infarcted Area [3, 7]: 7.69 ± 0.67%"
"O=C(c1ccc(C(F)(F)F)cc1)N1N=CCC1c1ccccc1 (stereo not drawn) [Compound 60, 1-(4-Trifluoromethylbenzoyl)-5-phenyl-2-pyrazoline]",810,20.9,–,–
"O=C(CN1N=CCC1c1ccccc1)c1ccccc1 (stereo not drawn) [Compound 61, 1-Benzoylmethyl-5-phenyl-2-pyrazoline]",540,16.7,–,–
"O=C(C1CCCCC1)N1N=CCC1c1ccccc1 (stereo not drawn) [Compound 62, 1-Cyclohexylcarbonyl-5-phenyl-2-pyrazoline]",630,15.3,–,–
"O=C(c1ccco1)N1N=CCC1c1ccccc1 (stereo not drawn) [Compound 63, 1-(2-Furylcarbonyl)-5-phenyl-2-pyrazoline]",710,26.1,–,–
"O=C(c1cccs1)N1N=CCC1c1ccccc1 (stereo not drawn) [Compound 64, 1-(2-Thienylcarbonyl)-5-phenyl-2-pyrazoline]",830,28.5,–,–
"O=C(Nc1cccnc1)N1N=CCC1c1ccccc1 (stereo not drawn) [Compound 65, 1-[N-(3-pyridyl)carbamoyl]-5-phenyl-2-pyrazoline]",630,–,27.1,–
"S=C(Nc1cccnc1)N1N=CCC1c1ccccc1 (stereo not drawn) [Compound 66, 1-[N-(3-pyridyl)thiocarbamoyl]-5-phenyl-2-pyrazoline]",560,–,18.9,–
CCN(CC)Cc1nccn1-c1ccc([N+](=O)[O-])cc1C(=O)c1ccccc1Cl [Nizofenone],–,–,–,"action to inhibit cerebral edemas ([4]; Japan Clinics, 43, 185, 1985): no action to inhibit cerebral edemas; consciousness troubles ([4]; Japan Clinics, 43, 185, 1985): helps alleviate consciousness troubles; protection of the brain from cerebral ischemia [4]: useful to protect the brain from cerebral ischemia"
CCC1(c2ccccc2)C(=O)NC(=O)N(C)C1=O (stereo not drawn) [mefobarbital],–,–,–,protection of the brain from cerebral ischemia [4]: protect the brain from cerebral ischemia
CCCC(C)C1(CC)C(=O)NC(=O)NC1=O (stereo not drawn) [pentobarbital],–,–,–,protection of the brain from cerebral ischemia [4]: protect the brain from cerebral ischemia

# Source: US4839376A, “Pyrazoline derivatives for treating cerebrovascular diseases” (Mitsui Toatsu Chemicals, Inc., priority 1987, dated 1989)
